Values of other authors in patent US11737976B2, “Drug delivery means” (priority 2006, dated 2023).
Where two headings read alike, the source gives them in different places.

Tests used:
[1] = system: endothelial and smooth muscle cells
[2] = system: arterial smooth muscle cell
[3] = system: oxidized cholesterols present in the plasma; conditions: increased concentrations of vitamin E in the blood; some oxidized cholesterols, not all; not reversed once packed into plaques

## CC(C)CCC[C@@H](C)[C@H]1CC[C@H]2[C@@H]3C(=O)C=C4C[C@@H](O)CC[C@]4(C)[C@H]3CC[C@]12C [7-Keto, 5-Cholesten-3β-ol-7-one]
fibroblasts
  apoptosis in fibroblasts: did not cause apoptosis
[1]
  induction of apoptosis: able to induce apoptosis
cells
  cytotoxicity relative to the other oxidized cholesterols studied: most cytotoxic

## CC(C)CCC[C@@H](C)[C@H]1CC[C@H]2[C@@H]3[C@@H](O)C=C4C[C@@H](O)CC[C@]4(C)[C@H]3CC[C@]12C [7B, 7β-hydroxycholesterol]
fibroblasts; necrosis occurred instead
  apoptosis in fibroblasts: did not cause apoptosis
[1]; cells of the vascular wall
  induction of apoptosis: able to induce apoptosis

## C[C@H](CCCC(C)(C)O)[C@H]1CC[C@H]2[C@@H]3CC=C4C[C@@H](O)CC[C@]4(C)[C@H]3CC[C@]12C [25OH, 25-hydroxycholesterol]
[2]
  changes in the arterial smooth muscle cell: causes changes

## vitamin E
[3]
  lowering the amount of oxidized cholesterols in plasma: effective in lowering the amount of some oxidized cholesterols
